Assay results from PubChem BioAssay (NCI).
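Five concentrations, 48 hours, 96-well plates. GI50 = concentration required for 50% inhibition of growth. At the TGI there is no net growth.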

What was measured:
Test in all cases: NCI-60 cell line screen, 48 h
U251 CNS = tested on: U251 CNS
UO-31 renal = tested on: UO-31 renal
786-0 renal = tested on: 786-0 renal
CCRF-CEM leukemia = tested on: CCRF-CEM leukemia
OVCAR-8 ovarian = tested on: OVCAR-8 ovarian
HCT-116 colon = tested on: HCT-116 colon
SK-OV-3 ovarian = tested on: SK-OV-3 ovarian
SNB-19 CNS = tested on: SNB-19 CNS
MOLT-4 leukemia = tested on: MOLT-4 leukemia
MDA-MB-231 breast = tested on: MDA-MB-231 breast

| SMILES | GI50 (U251 CNS) [nM] | TGI (U251 CNS) [µM] | GI50 (UO-31 renal) [µM] | TGI (UO-31 renal) [µM] | GI50 (786-0 renal) [µM] | TGI (786-0 renal) [µM] | GI50 (CCRF-CEM leukemia) [nM] | TGI (CCRF-CEM leukemia) [µM] | GI50 (OVCAR-8 ovarian) [µM] | TGI (OVCAR-8 ovarian) [µM] | GI50 (HCT-116 colon) [µM] | TGI (HCT-116 colon) [µM] | GI50 (SK-OV-3 ovarian) [nM] | TGI (SK-OV-3 ovarian) [µM] | GI50 (SNB-19 CNS) [µM] | TGI (SNB-19 CNS) [µM] | GI50 (MOLT-4 leukemia) [nM] | TGI (MOLT-4 leukemia) [µM] | GI50 (MDA-MB-231 breast) [nM] | TGI (MDA-MB-231 breast) [µM] |
| --- | --- | --- | --- | --- | --- | --- | --- | --- | --- | --- | --- | --- | --- | --- | --- | --- | --- | --- | --- | --- |
| COc1ccccc1[N-]C(C1=C([O-])c2ccccc2C1=O)c1ccccc1.COc1ccccc1[N-]C(C1=C([O-])c2ccccc2C1=O)c1ccccc1.[Cu+2] (configuration not stated) | 2880 | 8.33 | 12 | 75.2 | 7.76 | > 100 | 3490 | > 100 | 7.52 | > 100 | 3.26 | > 100 | 2090 | 6.57 | 23.8 | 81.8 | 5980 | > 100 | – | – |
| COc1cc2cc(Oc3ccc(NC(=O)Nc4ccc(Cl)c(C(F)(F)F)c4)cc3)c(C)nc2cc1OCCN1CCCCC1 | – | – | 1.36 | 2.69 | 1.64 | 3.17 | 1680 | 3.76 | – | – | 1.54 | 2.98 | 2280 | 3.93 | 1.68 | 3.19 | 1100 | 2.71 | 1390 | 2.75 |
| c1ccc2[nH]c(-c3ccc(N4CCN(c5ccc(-c6nc7ccccc7[nH]6)cc5)CC4)cc3)nc2c1 | 41300 | > 100 | > 100 | > 100 | 36.9 | > 100 | 44600 | > 100 | > 100 | > 100 | 5.11 | > 100 | – | – | 10.5 | > 100 | 34900 | > 100 | > 100000 | > 100 |
| O=C(NCCCCCCNC(=O)c1cccc2ccccc12)c1cccc2ccccc12 | – | 53.8 | – | 66.3 | – | 80.7 | – | > 100 | – | > 100 | – | 53.9 | – | 56.9 | – | – | – | > 100 | – | – |
| CN(C)c1ccc2c(NCCCCCCNc3ccnc4cc(N(C)C)ccc34)ccnc2c1 | – | 24.3 | – | > 100 | – | 45.3 | – | > 100 | – | 20.5 | – | > 100 | – | > 100 | – | 16.4 | – | > 100 | – | – |
| CCCC(O)[C@@H](O)c1ccc2c(c1O)C(=O)c1c(OC)cccc1C2=O (some centres not stated) | – | > 100 | – | 91.2 | – | > 100 | – | 85.7 | – | > 100 | – | > 100 | – | > 100 | – | > 100 | – | 69.2 | – | – |
| COc1ccc2c(c1)CCC1C2CCC2(C)C1CCC2(O)CNC(=O)CCCCC1CCSS1 (configuration not stated) | 15200 | 56.6 | 24.9 | > 100 | 17.7 | 64 | 1590 | 4.33 | 11.7 | > 100 | 9.3 | > 100 | – | – | 18.1 | 51.1 | 1660 | > 100 | 2800 | 8.3 |
| CC1(C)CCC2(C(=O)OC3OC(CO)C(O)C(O)C3O)CC[C@]3(C)C(=CCC4C5(C)CC[C@H](OC6OC(C(=O)O)C(O)C(O)C6O)C(C)(C)C5CCC43C)C2C1 (some centres not stated) | 1060 | 2.61 | 12.7 | 31.8 | 1.56 | 6.19 | 23100 | > 50 | 4.28 | 18.1 | 1.12 | 2.38 | – | – | 1.44 | 8.39 | 997 | 2.84 | 1150 | 2.76 |
| Fc1ccc2[nH]cc(Cc3c[nH]c4ccc(F)cc34)c2c1 | 19700 | 44.8 | 13.7 | 33.7 | 17.1 | 35.6 | 16700 | 64.5 | 19.4 | 52 | 17.8 | 43.3 | – | – | 20.2 | 51.9 | 1970 | 22.1 | 16700 | 46.5 |
| CCC[CH2][Sn]([CH2]CCC)([O]C(C)=O)[O]C(C)=O | 888 | 2.09 | 1.72 | 3.13 | 1.48 | 2.83 | 197 | 0.832 | 1.9 | 4.6 | 1.56 | 3.26 | 1930 | 3.95 | 1.14 | 2.35 | 505 | 4.59 | – | – |
| CC1(Sc2ccccc2)CN(Cc2ccccc2)C1=O (configuration not stated) | – | > 100 | – | > 100 | – | > 100 | – | > 100 | – | > 100 | – | > 100 | – | > 100 | – | > 100 | – | > 100 | – | – |
| COC(=O)CCC(=O)N1Cc2cc(C)ccc2N(C(=O)CCC(=O)OC)Cc2cc(C)ccc21 | – | > 100 | – | > 100 | – | > 100 | – | > 100 | – | > 100 | – | > 100 | – | > 100 | – | – | – | > 100 | – | – |
| Cc1ccc(C(=O)Nc2ccc(S(=O)(=O)O)c3cc(S(=O)(=O)O)cc(S(=O)(=O)O)c23)cc1NC(=O)c1cccc(N)c1 | – | > 100 | – | > 100 | – | > 100 | – | > 100 | – | > 100 | – | – | – | > 100 | – | > 100 | – | > 100 | – | > 100 |
| CN(C)CCNC(=O)c1cccn2c(=O)c3cc4ccccc4cc3nc12 | 114 | 18 | – | – | 0.11 | 14.1 | 100 | 32.6 | 0.0577 | > 69.6 | – | – | 235 | 22.8 | 0.185 | 47.7 | 57.1 | 8.23 | 316 | 8.84 |
| CCOC(=O)C=C1CCN(C(=O)c2ccccc2)CC1 | – | > 100 | – | > 100 | – | > 100 | – | > 100 | – | > 100 | – | > 100 | – | > 100 | – | > 100 | – | > 100 | – | – |
| CC1=C2CCCC2C/C(=N/Nc2ccc([N+](=O)[O-])cc2[N+](=O)[O-])CC1 (configuration not stated) | – | > 100 | – | > 100 | – | > 100 | – | – | – | > 100 | – | > 100 | – | > 100 | – | > 100 | – | > 100 | – | – |
| CC1CC2C(=O)NC(=O)C2c2[nH]c3ccccc3c21 (configuration not stated) | – | > 100 | – | > 100 | – | > 100 | – | > 100 | – | > 100 | – | > 100 | – | > 100 | – | – | – | > 100 | – | – |
